Assay results reported in the NIST ThermoML archive (doi:10.1021/je049671t).

Experiment: xn = mol fraction of the nth substance listed
Settings: Liquid, Vibrating tube method

CC(C)C [2-methylpropane] + CCC
Settings	mass density [kg/m3]
240 K, 398.2 kPa, x2 = 0.25	608.19
240 K, 475.1 kPa, x2 = 0.25	608.27
240 K, 529.1 kPa, x2 = 0.75	584.35
240 K, 1000.1 kPa, x2 = 0.25	608.87
240 K, 1024.1 kPa, x2 = 0.75	584.98
240 K, 1473.4 kPa, x2 = 0.75	585.53
240 K, 1505.9 kPa, x2 = 0.25	609.45
240 K, 2000.7 kPa, x2 = 0.75	586.19
240 K, 2004.5 kPa, x2 = 0.25	610.02
240 K, 2531.8 kPa, x2 = 0.75	586.84
240 K, 2533 kPa, x2 = 0.25	610.61
240 K, 3006.4 kPa, x2 = 0.75	587.4
240 K, 3028.4 kPa, x2 = 0.25	611.15
240 K, 3537.9 kPa, x2 = 0.25	611.73
240 K, 3545.4 kPa, x2 = 0.75	588.06
240 K, 4012.9 kPa, x2 = 0.75	588.63
240 K, 4027.7 kPa, x2 = 0.25	612.28
240 K, 4515.3 kPa, x2 = 0.75	589.21
240 K, 4519.1 kPa, x2 = 0.25	612.81
240 K, 4996.8 kPa, x2 = 0.75	589.79
240 K, 5030.4 kPa, x2 = 0.25	613.37
240 K, 5496.4 kPa, x2 = 0.75	590.37
240 K, 5533.4 kPa, x2 = 0.25	613.91
240 K, 6009 kPa, x2 = 0.75	590.98
240 K, 6033 kPa, x2 = 0.25	614.45
240 K, 6541 kPa, x2 = 0.75	591.59
240 K, 6541.5 kPa, x2 = 0.25	615
240 K, 6969.5 kPa, x2 = 0.75	592.1
240 K, 6987.7 kPa, x2 = 0.25	615.48
250 K, 515.5 kPa, x2 = 0.499	584.94
250 K, 1014.4 kPa, x2 = 0.499	585.61
250 K, 1511.1 kPa, x2 = 0.499	586.26
250 K, 2027.5 kPa, x2 = 0.499	586.95
250 K, 2489.8 kPa, x2 = 0.499	587.55
250 K, 3012.9 kPa, x2 = 0.499	588.23
250 K, 3492.5 kPa, x2 = 0.499	588.84
250 K, 3995.9 kPa, x2 = 0.499	589.47
250 K, 4532.5 kPa, x2 = 0.499	590.12
250 K, 5042.2 kPa, x2 = 0.499	590.74
250 K, 5484.6 kPa, x2 = 0.499	591.29
250 K, 5996.5 kPa, x2 = 0.499	591.9
250 K, 6509.5 kPa, x2 = 0.499	592.48
250 K, 6818.8 kPa, x2 = 0.499	592.84
260 K, 251.9 kPa, x2 = 0.75	560.57
260 K, 521.1 kPa, x2 = 0.25	586.55
260 K, 527 kPa, x2 = 0.75	561.44
260 K, 990.2 kPa, x2 = 0.25	587.2
260 K, 1026.1 kPa, x2 = 0.75	562.22
260 K, 1481.6 kPa, x2 = 0.25	587.88
260 K, 1524.1 kPa, x2 = 0.75	563.04
260 K, 2004.4 kPa, x2 = 0.25	588.63
260 K, 2030.6 kPa, x2 = 0.75	563.8
260 K, 2504.8 kPa, x2 = 0.25	589.32
260 K, 2508.8 kPa, x2 = 0.75	564.52
260 K, 2995 kPa, x2 = 0.25	589.98
260 K, 3035.5 kPa, x2 = 0.75	565.31
260 K, 3494.1 kPa, x2 = 0.75	566
260 K, 3517.2 kPa, x2 = 0.25	590.65
260 K, 3986.7 kPa, x2 = 0.25	591.2
260 K, 4039.9 kPa, x2 = 0.75	566.81
260 K, 4476.3 kPa, x2 = 0.25	591.87
260 K, 4527.2 kPa, x2 = 0.75	567.5
260 K, 4968.6 kPa, x2 = 0.75	568.07
260 K, 4976.3 kPa, x2 = 0.25	592.53
260 K, 5537.1 kPa, x2 = 0.75	568.72
260 K, 5550.8 kPa, x2 = 0.25	593.3
260 K, 6051.9 kPa, x2 = 0.25	593.96
260 K, 6474.3 kPa, x2 = 0.25	594.47
260 K, 6513.6 kPa, x2 = 0.75	570.1
260 K, 6922.9 kPa, x2 = 0.75	570.57

mass density [kg/m3]
Settings	x2 = 0.25	x2 = 0.499	x2 = 0.75
240 K	607.81	–	583.82
250 K	–	584.44	–
